Measured values reported in patent US20040235922A1, “Compositions and methods for inducing adipose tissue cell death” (priority 2003, published 2004).
Entries after “also recorded” stand apart in the source; their conditions may differ. Counter-ions that a name gives are not always drawn. Marks after values point to notes of the source that are not given here.

Legend:
[1] = 21 day oral (diet) treatment of mice: body weight, food intake, feed efficiency, body temperature, body composition by PIXImus densitometry (Example 1); type: in vivo; conditions: 21 days, ICR mice
Procedure: (§1) The effects of clenbuterol, a β2-AR agonist, and ractopamine, a β1/β2-AR agonist, on growth, adiposity and adipose tissue apoptosis in male and female mice have been tested by feeding diets containing control, 200 ppm clenbuterol, or 200 or 800 ppm ractopamine. Food intake (FI) was measured daily; body weight (BW) and temperatures (BT) were measured on days 0, 3, 7, 10, 14, 17, and 20. On day 21 mice were sacrificed, body composition was determined using PIXImus densitometry, and muscle and adipose tissues were collected. There were no treatment effects on BT, FI, BW, feed efficiency or body composition. Retroperitoneal (Rp) and epididymal/parametrial (Epi/Par) fat pad masses were reduced in both 800 ppm ractopamine (40±3 and 207±20 mg, respectively) and clenbuterol (35±7 and 211±22 mg) treated mice compared to control (66±8 and 319±30 mg, p<0.05). Brown adipose tissue (BAT) mass was greater (p<0.05) in clenbuterol treated mice compared to other treatments. Adipose tissue apoptosis (% DNA fragmentation) was increased in Epi/Par fat pads in clenbuterol (5.2+1.1%) and 800 ppm ractopamine (4.1±0.8%) treated mice compared to control (1.7+0.4%, p<0.05).
(§2) Animals: Five week old male (n=20) and female (n=20) ICR mice (Harlan Research Laboratories, Indianapolis, Ind.) were allowed to acclimate for one week prior to the experiment start date. Animals were housed singly in suspended wire cages and were provided ground rodent chow (ProLab® RMH 2500; Purina Mills, St. Louis, Mo.) and water ad libitum. Ambient room temperature was maintained and the light/dark cycle was 0600/1800 hours, respectively. Animals were cared for in accordance with the Guide for the Care and Use of Laboratory Animals (Institute of Laboratory Animal Resources Commission on Life Sciences National Research Council. Guide for the Care and Use of Laboratory Animals. National Academy of Sciences, 1996). Prior to the start of the study, animals were briefly anesthetized with isofluorane and an IPPT-200 transponder (programmable ID and temperature, BMDS, Seaford, Del.) was implanted subcutaneously between the scapulae.
(§3) Materials: Test articles included clenbuterol (Sigma Chemical Company, St. Louis, Mo., item # C5423) and ractopamine hydrochloride—Paylean® 9 (Elanco Animal Health, Indianapolis, Ind.). Clenbuterol is available as a pure product, and ractopamine is readily available as a type A medicated article. Paylean® 9 contains about 20 g ractopamine hydrochloride per kilogram in a ground corncob base. In order to achieve doses of 200 and 800 ppm it was necessary to add about […] of product per kilogram of diet. Control and clenbuterol diets were prepared with about 80 g of alphacel, which is a diluent used to mimic the effect of the corncob in the ractopamine product. The dose of clenbuterol used in this experiment was similar to those used in previous experiments with mice (Agbenyega E T, and Wareham A C. Effect of clenbuterol on skeletal muscle atrophy in mice induced by the glucocorticoid dexamethasone. Comp Biochem Physiol Comp Physiol 1992;102:141-145, Rothwell N. J., and Stock M J. Modification of body composition by clenbuterol in normal and dystrophic (mdx) mice. Biosci Rep 1985;5:755-760, Hyltander A, Svaninger G, and Lundholm K. The effect of clenbuterol on body composition in spontaneously eating tumour-bearing mice. Biosci Rep 1993;13:325-331, Hayes A, and Williams DA. Long-term clenbuterol administration alters the isometric contractile properties of skeletal muscle from normal and dystrophin-deficient mdx mice. Clin Exp Pharmacol Physiol 1994;21:757-765, Dupont-Versteegden EE. Exercise and clenbuterol as strategies to decrease the progression of muscular dystrophy in mdx mice. J Appl Physiol 1996;80:734-741).
Daily Observations: Food intake was measured daily, while body weight and body temperatures were measured on days 0, 3, 7, 10, 14, 17, and 20 at approximately the same time of day (1300 hours) during the treatment period. […]

male and female ICR mice = experiment: 21 day oral (diet) treatment of mice: selected tissue weights, fat pads, BAT, muscle, organs (Example 1); type: in vivo; conditions: 21 days; for BAT tissue weight, mean / Biceps tissue weight, mean / Epi/Par tissue weight, mean / Ing tissue weight, mean / Rp tissue weight, mean: male and female mice; for Par weight, mean: females; for Epi weight, mean: males
Procedure: as §1, §2
as §3, with “1996;80:734-741). […]” for “1996;80:734-741).”

[2] = tested on: Epi/Par fat pads (white adipose tissue); experiment: Adipose tissue apoptosis assay, % DNA fragmentation (Example 1); type: in vivo, mice; conditions: 21 days
Procedure: as §2, §3
DNA Isolation and Apoptosis Assay: Only the Epi and Par fat pads had sufficient tissue for the apoptosis assay. Apoptosis was assayed in two ways: DNA isolated from fat tissue was separated into two fractions: fragmented and genomic DNA. First, the fragmented DNA was run on an agarose gel in order to identify a ladder pattern of internucleosomal DNA degradation that is characteristic of apoptosis. Second, apoptosis was quantified as the ratio of fragmented- to total-DNA, multiplied by 100. Briefly, approximately 50 mg of the Epi or Par white adipose tissue was homogenized in lysis buffer (10 mM Tris-HCL, pH 8.0, 10 mM EDTA, pH 8.0; 0.5% Triton X-100) and centrifuged at 14,000× g for 15 min to separate fragmented DNA from genomic DNA. The supernatant, containing fragmented DNA, was extracted with phenol-chloroform-isoamyl alcohol (25:24:1), and the DNA was precipitated by adding polyacryl carrier (Molecular Research Center, Inc., Cincinnati, Ohio) and ethanol. Genomic (non-fragmented) DNA was extracted from the pellet with DNAzol and the polyacryl carrier. DNA in each fraction was quantified by the PicoGreen method (Molecular Probes, Inc., Eugene, Oreg.) and fluorescence was measured using a SpectroMax Gemini (Molecular Devices).
Statistical Analysis: Analysis of variance (SAS) was used to determine significance of treatment and gender effects. […]

adipocytes = conditions: leptin administration; cited from earlier work
cardiac myocytes = conditions: via β1-AR stimulation; cited from earlier work
[3] = 200 ppm clenbuterol, 800 ppm ractopamine in diet, p<0.05, hydrochloride

For `CC(CCc1ccc(O)cc1)NCC(O)c1ccc(O)cc1` (racemic) [Ractopamine, ractopamine hydrochloride], the “Cumulative Feed Intake” value ([1]; 200 ppm in diet) was 5.92 g, the “Densitometry Bone Mineral Content” value ([1]; 200 ppm in diet) was 0.67 g and the “Densitometry Fat” value ([1]; 200 ppm in diet) was 3.00 g. The “Densitometry Lean” value ([1]; 200 ppm in diet) was 25.63 g, the “Feed Efficiency” value ([1]; 200 ppm in diet) was 15.8 and the “Final Body Weight” value ([1]; 200 ppm in diet) was 31.4 g. The “Weight Gain” value ([1]; 200 ppm in diet) was 8.25 g, the “Cumulative Feed Intake” value ([1]; 800 ppm in diet) was 6.39 g and the “Densitometry Bone Mineral Content” value ([1]; 800 ppm in diet) was 0.67 g. The “Densitometry Fat” value ([1]; 800 ppm in diet) was 3.01 g, the “Densitometry Lean” value ([1]; 800 ppm in diet) was 27.42 g and the “Feed Efficiency” value ([1]; 800 ppm in diet) was 16.6. The “Final Body Weight” value ([1]; 800 ppm in diet) was 31.5 g, the “Weight Gain” value ([1]; 800 ppm in diet) was 8.32 g and the “Effect on body temperature, food intake, body weight, feed efficiency, body composition” value ([1]; diet, hydrochloride) was “not significantly affected; also recorded: Neither clenbuterol nor ractopamine affected”. The “Rp and Epi/Par fat pad weights compared to control” value (male and female ICR mice; [3]) was “reduced; also recorded: decreased”, the “BAT tissue weight, mean” value (male and female ICR mice; 200 ppm in diet) was “.096” and the “Biceps tissue weight, mean” value (male and female ICR mice; 200 ppm in diet) was “.128”. For the same molecule, the “Epi/Par tissue weight, mean” value (male and female ICR mice; 200 ppm in diet) was “.295”, the “Ing tissue weight, mean” value (male and female ICR mice; 200 ppm in diet) was “.230” and the “Rp tissue weight, mean” value (male and female ICR mice; 200 ppm in diet) was “.058”. For the same molecule, the “BAT tissue weight, mean” value (male and female ICR mice; 800 ppm in diet) was “.095”, the “Biceps tissue weight, mean” value (male and female ICR mice; 800 ppm in diet) was “.158” and the “Epi/Par tissue weight, mean” value (male and female ICR mice; 800 ppm in diet) was “.207”. For the same molecule, the “Ing tissue weight, mean” value (male and female ICR mice; 800 ppm in diet) was “.176”, the “Rp tissue weight, mean” value (male and female ICR mice; 800 ppm in diet) was “.039” and the “Retroperitoneal (Rp) fat pad mass” value (male and female ICR mice; 800 ppm in diet, mice, control 66±8 mg) was 40 ± 3 mg. For the same molecule, the “Epididymal/parametrial (Epi/Par) fat pad mass” value (male and female ICR mice; 800 ppm in diet, mice, control 319±30 mg) was 207 ± 20 mg, the “Muscle mass / muscle weight, body protein or fat content” value (male and female ICR mice; diet, ICR mice) was “no effect” and the “Par weight, mean” value (male and female ICR mice; 200 ppm in diet) was “.22^b”. The “Par weight, mean” value (male and female ICR mice; 800 ppm in diet) was “.22^b”, the “Epi weight, mean” value (male and female ICR mice; 200 ppm in diet) was “.36^a” and the “Epi weight, mean” value (male and female ICR mice; 800 ppm in diet) was “.19^b”. For the same molecule, the “Percent DNA fragmentation (apoptosis) in the Epi/Par fat pad compared to control” value [2, 3] was “significant increase in apoptosis”, the “Adipose tissue apoptosis (% DNA fragmentation) in Epi/Par fat pads” value ([2]; 800 ppm in diet, mice, control 1.7±0.4%) was 4.1±0.8% and the “DNA fragmentation in retroperitoneal or inguinal fat pads” value ([2]; diet, mice) was “Neither clenbuterol nor ractopamine treatments increased”.
For “leptin: leptin, administration shown in previous experiments to increase apoptosis of adipocytes”, the Apoptosis of adipocytes (adipocytes) is given as “increase apoptosis”.
In the case of `NC[C@H](O)c1ccc(O)c(O)c1` [norepinephrine], the “Apoptosis of cardiac myocytes” value (cardiac myocytes) is given as “induce apoptosis”.
